Assay results as given in ChEMBL document CHEMBL1201861, “Genomics of Drug Sensitity in Cancer screening data, Wellcome Trust Sanger Institute”.

Assays:
Assay in all cases: cells
[1] = tested on: NKM-1; assay type: functional, cell-based; settings: Homo sapiens;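 also: growth inhibition of NKM-1 cells, read out with a cell viability assay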
[2] = tested on: RCC10RGB; assay type: functional, cell-based, Homo sapiens; settings: Homo sapiens, RCC10RGB;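 also: growth inhibition of human RCC10RGB cells, read out by a cell viability assay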
Description: SANGER: Inhibition of human RCC10RGB cell growth in a cell viability assay.

[3] = tested on: LB996-RCC; assay type: functional, cell-based; settings: Homo sapiens
Description: SANGER: Inhibition of human LB996-RCC cell growth in a cell viability assay.

[4] = tested on: LS-411N; assay type: functional, cell-based, Homo sapiens; settings: Homo sapiens, LS-411N
[5] = tested on: SNB-75; assay type: functional, cell-based, Homo sapiens; settings: Homo sapiens, SNB-75;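 also: cell viability assay measuring growth inhibition of human SNB-75 cells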
Description: SANGER: Inhibition of human SNB75 cell growth in a cell viability assay.

[6] = tested on: LB373-MEL-D; assay type: functional, cell-based, Homo sapiens; settings: Homo sapiens, LB373-MEL-D;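 also: growth inhibition of the cell line, read out in a cell viability assay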
Description: SANGER: Inhibition of human LB373-MEL-D cell growth in a cell viability assay.

[7] = tested on: KG-1; assay type: functional, cell-based; settings: Homo sapiens;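 also: growth inhibition of KG-1 cells, read out by a cell viability assay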
[8] = tested on: NCI-H446; assay type: functional, cell-based; settings: Homo sapiens;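 also: growth inhibition of NCI-H446 cells determined by a cell viability assay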
Description: SANGER: Inhibition of human NCI-H446 cell growth in a cell viability assay.

[9] = tested on: MFH-ino; assay type: functional, cell-based; settings: Homo sapiens;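 also: growth inhibition of human MFH-ino cells, read out by a cell viability assay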
Description: SANGER: Inhibition of human MFH-ino cell growth in a cell viability assay.

[10] = tested on: CW-2; assay type: functional, cell-based, Homo sapiens; settings: Homo sapiens, CW-2;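 also: growth inhibition of CW-2 cells, read out by a cell viability assay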
Description: SANGER: Inhibition of human CW-2 cell growth in a cell viability assay.

[11] = tested on: D-392MG; assay type: functional, cell-based, Homo sapiens; settings: Homo sapiens, D-392MG
[12] = tested on: IST-MES1; assay type: functional, cell-based, Homo sapiens; settings: Homo sapiens, IST-MES1;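 also: growth inhibition of IST-MES1 cells, measured with a cell viability assay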
Description: SANGER: Inhibition of human IST-MES1 cell growth in a cell viability assay.

[13] = tested on: MMAC-SF; assay type: functional, cell-based, Homo sapiens; settings: Homo sapiens, MMAC-SF;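 also: growth inhibition of human MMAC-SF cells, read out with a cell viability assay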
Description: SANGER: Inhibition of human MMAC-SF cell growth in a cell viability assay.

[14] = tested on: EKVX; assay type: functional, cell-based, Homo sapiens; settings: Homo sapiens, EKVX;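 also: growth inhibition of human EKVX cells, read out with a cell viability assay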
Description: SANGER: Inhibition of human EKVX cell growth in a cell viability assay.

[15] = tested on: NCI-H1304; assay type: functional, cell-based; settings: Homo sapiens;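 also: growth inhibition of the cancer cell line, measured in a cell viability assay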
Description: SANGER: Inhibition of human NCI-H1304 cell growth in a cell viability assay.

[16] = tested on: ATN-1; assay type: functional, cell-based; settings: Homo sapiens;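 also: growth inhibition of human ATN-1 cells, read out with a cell viability assay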
Description: SANGER: Inhibition of human ATN-1 cell growth in a cell viability assay.

[17] = tested on: LB2241-RCC; assay type: functional, cell-based, Homo sapiens; settings: Homo sapiens, LB2241-RCC;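 also: cell viability assay measuring how strongly the cultured human renal carcinoma line is prevented from growing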
Description: SANGER: Inhibition of human LB2241-RCC cell growth in a cell viability assay.

[18] = tested on: DMS-114; assay type: functional, cell-based, Homo sapiens; settings: Homo sapiens, DMS-114
[19] = tested on: Mo; assay type: functional, cell-based; settings: Homo sapiens
Description: SANGER: Inhibition of human Mo-T cell growth in a cell viability assay.

[20] = tested on: L-428; assay type: functional, cell-based; settings: Homo sapiens
Description: SANGER: Inhibition of human L-428 cell growth in a cell viability assay.

[21] = tested on: K5; assay type: functional, cell-based, Homo sapiens; settings: Homo sapiens, K5
[22] = tested on: KM-H2; assay type: functional, cell-based; settings: Homo sapiens;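 also: growth inhibition of KM-H2 cells, read out by a cell viability assay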
Description: SANGER: Inhibition of human KM-H2 cell growth in a cell viability assay.

[23] = tested on: IA-LM; assay type: functional, cell-based, Homo sapiens; settings: Homo sapiens, IA-LM;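 also: cell viability assay measuring growth inhibition of human IA-LM cells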
Description: SANGER: Inhibition of human IA-LM cell growth in a cell viability assay.

| SMILES | IC50 [1] [nM] | IC50 [2] [nM] | IC50 [3] [nM] | IC50 [4] [nM] | IC50 [5] [nM] | IC50 [6] [nM] | IC50 [7] [nM] | IC50 [8] [nM] | IC50 [9] [nM] | IC50 [10] [nM] | IC50 [12] [nM] | IC50 [13] [nM] | IC50 [14] [nM] | IC50 [15] [nM] | IC50 [16] [nM] | IC50 [17] [nM] | IC50 [18] [nM] | IC50 [19] [nM] | IC50 [20] [nM] | IC50 [21] [nM] | further results |
| --- | --- | --- | --- | --- | --- | --- | --- | --- | --- | --- | --- | --- | --- | --- | --- | --- | --- | --- | --- | --- | --- |
| C=C1C(=O)O[C@@H]2C3O[C@]3(C)CC/C=C(\C)CC[C@@H]12 (stereo not given in full) | > 5000 | > 5000 | > 5000 | > 5000 | > 5000 | > 5000 | > 5000 | > 5000 | > 5000 | > 5000 | > 5000 | > 5000 | > 5000 | > 5000 | > 5000 | > 5000 | > 5000 | > 5000 | > 5000 | > 5000 | IC50 [11]: > 5000 nM; IC50 [22]: > 5000 nM |
| CC1=C2C[C@H]3[C@@H](CC=C4C[C@@H](O)CC[C@@]43C)[C@@H]2CC[C@]12O[C@@H]1C[C@H](C)CN[C@H]1[C@H]2C [CYCLOPAMINE] | > 16000 | > 16000 | > 16000 | > 16000 | > 16000 | > 16000 | > 16000 | > 16000 | > 16000 | > 16000 | > 16000 | > 16000 | > 16000 | > 16000 | > 16000 | > 16000 | > 16000 | > 16000 | > 16000 | > 16000 | IC50 [11]: > 16000 nM; IC50 [22]: > 16000 nM |
| CS(=O)(=O)CCNCc1ccc(-c2ccc3ncnc(Nc4ccc(OCc5cccc(F)c5)c(Cl)c4)c3c2)o1 [LAPATINIB] | > 2000 | > 2000 | 1360 | > 2000 | > 2000 | > 2000 | > 2000 | > 2000 | > 2000 | > 2000 | > 2000 | > 2000 | 449 | > 2000 | > 2000 | 1150 | > 2000 | > 2000 | > 2000 | > 2000 | IC50 [11]: > 2000 nM; IC50 [22]: > 2000 nM |
| CCc1nc(N)nc(N)c1-c1ccc(Cl)cc1 [PYRIMETHAMINE] | > 20000 | > 20000 | > 20000 | 837 | > 20000 | > 20000 | > 20000 | > 20000 | > 20000 | > 20000 | > 20000 | > 20000 | > 20000 | > 20000 | 1780 | > 20000 | > 20000 | > 20000 | > 20000 | > 20000 | IC50 [11]: > 20000 nM; IC50 [22]: 12000 nM |
| O=C(/C=C/c1ccccc1)NC(NC(=S)Nc1cccc2cccnc12)C(Cl)(Cl)Cl (stereo not given) [SALUBRINAL] | 10600 | > 16000 | > 16000 | > 16000 | > 16000 | > 16000 | > 16000 | > 16000 | > 16000 | > 16000 | > 16000 | > 16000 | > 16000 | > 16000 | 12000 | 4990 | > 16000 | > 16000 | > 16000 | > 16000 | IC50 [11]: > 16000 nM; IC50 [22]: > 16000 nM |
| CN1CCN(CCOc2cc(OC3CCOCC3)c3c(Nc4c(Cl)ccc5c4OCO5)ncnc3c2)CC1 [SARACATINIB] | > 2000 | > 2000 | 442 | > 2000 | > 2000 | > 2000 | > 2000 | > 2000 | 1780 | > 2000 | > 2000 | > 2000 | > 2000 | > 2000 | > 2000 | > 2000 | > 2000 | > 2000 | > 2000 | > 2000 | IC50 [22]: > 2000 nM; IC50 [23]: > 2000 nM |
| CO[C@H]1C[C@@H]2CC[C@@H](C)[C@@](O)(O2)C(=O)C(=O)N2CCCC[C@H]2C(=O)O[C@H]([C@H](C)C[C@@H]2CC[C@@H](O)[C@H](OC)C2)CC(=O)[C@H](C)/C=C(\C)[C@@H](O)[C@@H](OC)C(=O)[C@H](C)C[C@H](C)/C=C/C=C/C=C/1C [SIROLIMUS] | > 100 | > 100 | 93.4 | 77.6 | > 100 | > 100 | > 100 | > 100 | > 100 | > 100 | > 100 | > 100 | > 100 | 57.2 | > 100 | > 100 | > 100 | > 100 | > 100 | > 100 | IC50 [22]: > 100 nM; IC50 [23]: 68.1 nM |
| CNC(=O)c1cc(Oc2ccc(NC(=O)Nc3ccc(Cl)c(C(F)(F)F)c3)cc2)ccn1 [SORAFENIB] | 74.2 | > 4000 | > 4000 | > 4000 | > 4000 | > 4000 | 1480 | > 4000 | 2920 | > 4000 | > 4000 | > 4000 | > 4000 | > 4000 | > 4000 | > 4000 | > 4000 | > 4000 | > 4000 | > 4000 | IC50 [11]: > 4000 nM; IC50 [22]: > 4000 nM |
| CCC(=O)N1CCN(c2ccc(-n3c(=O)ccc4cnc5ccc(-c6cnc7ccccc7c6)cc5c43)cc2C(F)(F)F)CC1 [TORIN1] | 987 | > 1200 | 11.4 | 14.4 | 63.4 | 155 | > 1200 | 169 | 28.1 | > 1200 | 235 | 26.3 | 445 | > 1200 | 27.9 | > 1200 | 240 | > 1200 | 103 | 64 | IC50 [22]: > 1200 nM; IC50 [23]: 29.2 nM |
| Cc1cc(Nc2cc(N3CCN(C)CC3)nc(Sc3ccc(NC(=O)C4CC4)cc3)n2)n[nH]1 [TOZASERTIB] | 1030 | > 2000 | > 2000 | 578 | > 2000 | > 2000 | > 2000 | > 2000 | 9.9 | > 2000 | > 2000 | > 2000 | > 2000 | 1830 | > 2000 | > 2000 | > 2000 | > 2000 | > 2000 | > 2000 | IC50 [22]: > 2000 nM; IC50 [23]: > 2000 nM |
